In patent US8846949B2, “Pyrrolopyrazoles as N-type calcium channel blockers” (Janssen Pharmaceutica NV, priority 2012, dated 2014):
pIC50: −log10 of the molar value. Read-outs that look alike come from different tables or passages of the source.

How the values were obtained:
[1] = molecular target: T1, N-type calcium channel α1B (Cav2.2), β3 and α2δ subunits (Homo sapiens, UniProt Q00975); assay: Functional assay, antagonism of N-type calcium channel (FDSS calcium mobilization response to KCl depolarization); type: cell-based
T1 construct: expressed in transfected cells
How it was run: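 HEK cells stably co-expressing α1B (Cav2.2), β3 and α2δ subunits were loaded with calcium dye, preincubated with compound for 5 min, then depolarized with 50 mM KCl and read for 3 min by FDSS fluorescence. IC50 from six-point curves, normalized to KCl maximum and buffer minimum.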

N-type calcium channel = molecular target: T2, N-type calcium channel (Homo sapiens, UniProt Q00975); assay: Automated electrophysiology assay (QPatch-HT whole-cell patch clamp); type: cell-based; conditions: 1 μM
T2 construct: expressed in transfected cells
How it was run: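 Whole-cell QPatch recordings used 10 mM Ba²⁺/TEA external solution and CsCl internal solution. Trains of 15 pulses at 5 Hz to +20 mV from −80 mV were applied; 1st- and 15th-pulse currents were normalized to control, with CdCl2 zeroing. […]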

T1 sequence (Q00975 whole entry): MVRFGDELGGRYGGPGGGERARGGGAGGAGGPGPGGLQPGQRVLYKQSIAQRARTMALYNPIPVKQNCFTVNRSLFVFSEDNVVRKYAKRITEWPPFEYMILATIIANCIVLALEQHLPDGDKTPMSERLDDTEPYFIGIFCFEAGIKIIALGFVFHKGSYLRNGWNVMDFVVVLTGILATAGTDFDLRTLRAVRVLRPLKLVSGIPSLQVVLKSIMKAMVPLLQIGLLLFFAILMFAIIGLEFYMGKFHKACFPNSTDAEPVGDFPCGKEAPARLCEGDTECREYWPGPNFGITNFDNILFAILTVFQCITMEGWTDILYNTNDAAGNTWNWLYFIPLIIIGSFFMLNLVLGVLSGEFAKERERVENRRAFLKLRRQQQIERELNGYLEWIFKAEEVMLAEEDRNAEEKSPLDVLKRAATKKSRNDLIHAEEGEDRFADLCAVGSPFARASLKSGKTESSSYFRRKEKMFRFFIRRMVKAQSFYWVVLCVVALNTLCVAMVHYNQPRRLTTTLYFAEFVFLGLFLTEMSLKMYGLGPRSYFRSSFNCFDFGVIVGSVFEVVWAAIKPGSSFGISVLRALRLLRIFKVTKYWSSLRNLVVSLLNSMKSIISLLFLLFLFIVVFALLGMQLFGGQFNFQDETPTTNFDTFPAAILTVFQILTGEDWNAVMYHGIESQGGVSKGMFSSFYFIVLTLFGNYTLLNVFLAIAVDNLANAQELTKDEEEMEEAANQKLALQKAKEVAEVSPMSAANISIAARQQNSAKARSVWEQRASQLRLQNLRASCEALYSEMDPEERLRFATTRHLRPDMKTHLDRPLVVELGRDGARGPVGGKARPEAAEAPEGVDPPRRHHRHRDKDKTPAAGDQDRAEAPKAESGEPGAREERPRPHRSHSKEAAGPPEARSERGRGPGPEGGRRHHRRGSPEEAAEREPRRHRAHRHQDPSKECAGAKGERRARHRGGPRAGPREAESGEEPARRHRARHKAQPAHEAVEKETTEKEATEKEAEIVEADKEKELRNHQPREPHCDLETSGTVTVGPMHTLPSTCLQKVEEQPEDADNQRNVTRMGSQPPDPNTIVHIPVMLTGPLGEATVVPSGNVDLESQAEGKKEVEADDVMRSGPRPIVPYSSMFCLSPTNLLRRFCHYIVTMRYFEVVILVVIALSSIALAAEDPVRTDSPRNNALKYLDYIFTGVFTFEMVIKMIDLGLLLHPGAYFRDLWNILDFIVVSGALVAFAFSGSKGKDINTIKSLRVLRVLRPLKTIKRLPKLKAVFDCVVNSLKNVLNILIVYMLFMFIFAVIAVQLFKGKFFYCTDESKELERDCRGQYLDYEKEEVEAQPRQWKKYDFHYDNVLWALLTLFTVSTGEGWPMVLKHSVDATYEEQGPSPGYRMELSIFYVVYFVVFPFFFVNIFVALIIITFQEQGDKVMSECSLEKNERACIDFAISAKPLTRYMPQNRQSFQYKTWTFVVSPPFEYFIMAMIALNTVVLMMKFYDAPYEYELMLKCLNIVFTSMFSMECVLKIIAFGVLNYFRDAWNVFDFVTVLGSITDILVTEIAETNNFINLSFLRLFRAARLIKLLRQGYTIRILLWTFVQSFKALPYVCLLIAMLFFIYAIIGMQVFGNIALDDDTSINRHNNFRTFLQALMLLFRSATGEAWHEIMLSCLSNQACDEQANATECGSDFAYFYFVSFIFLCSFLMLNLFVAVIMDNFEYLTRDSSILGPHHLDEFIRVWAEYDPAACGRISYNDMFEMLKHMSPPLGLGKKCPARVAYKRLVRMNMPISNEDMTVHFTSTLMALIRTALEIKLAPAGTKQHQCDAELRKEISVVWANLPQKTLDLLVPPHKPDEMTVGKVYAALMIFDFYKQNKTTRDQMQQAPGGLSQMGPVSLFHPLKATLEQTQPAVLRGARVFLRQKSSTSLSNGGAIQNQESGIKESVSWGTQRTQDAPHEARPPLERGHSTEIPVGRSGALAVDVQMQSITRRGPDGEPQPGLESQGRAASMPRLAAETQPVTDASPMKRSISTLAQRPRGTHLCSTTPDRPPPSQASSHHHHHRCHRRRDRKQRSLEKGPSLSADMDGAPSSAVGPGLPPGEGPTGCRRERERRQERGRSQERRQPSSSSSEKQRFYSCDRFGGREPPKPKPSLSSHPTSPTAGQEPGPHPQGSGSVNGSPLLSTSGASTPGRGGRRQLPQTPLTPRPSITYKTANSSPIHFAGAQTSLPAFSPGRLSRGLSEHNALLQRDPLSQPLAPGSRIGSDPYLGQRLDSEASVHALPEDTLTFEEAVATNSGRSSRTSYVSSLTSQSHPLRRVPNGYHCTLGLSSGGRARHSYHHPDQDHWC
T1 sequence (P54284 whole entry partner): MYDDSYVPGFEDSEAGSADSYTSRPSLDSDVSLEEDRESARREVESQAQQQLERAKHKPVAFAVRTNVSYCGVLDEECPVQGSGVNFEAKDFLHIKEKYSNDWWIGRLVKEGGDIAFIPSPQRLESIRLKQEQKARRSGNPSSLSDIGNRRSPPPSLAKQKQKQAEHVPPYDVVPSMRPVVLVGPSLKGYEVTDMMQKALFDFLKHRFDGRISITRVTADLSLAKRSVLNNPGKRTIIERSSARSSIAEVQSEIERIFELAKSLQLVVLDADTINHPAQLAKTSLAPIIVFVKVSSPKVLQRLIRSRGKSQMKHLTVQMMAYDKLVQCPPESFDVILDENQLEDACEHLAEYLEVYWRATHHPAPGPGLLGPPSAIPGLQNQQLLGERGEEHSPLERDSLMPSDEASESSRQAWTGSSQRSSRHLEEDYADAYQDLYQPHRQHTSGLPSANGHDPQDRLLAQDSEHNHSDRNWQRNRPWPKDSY
T1 sequence (P54289 25-956 partner limits assumed): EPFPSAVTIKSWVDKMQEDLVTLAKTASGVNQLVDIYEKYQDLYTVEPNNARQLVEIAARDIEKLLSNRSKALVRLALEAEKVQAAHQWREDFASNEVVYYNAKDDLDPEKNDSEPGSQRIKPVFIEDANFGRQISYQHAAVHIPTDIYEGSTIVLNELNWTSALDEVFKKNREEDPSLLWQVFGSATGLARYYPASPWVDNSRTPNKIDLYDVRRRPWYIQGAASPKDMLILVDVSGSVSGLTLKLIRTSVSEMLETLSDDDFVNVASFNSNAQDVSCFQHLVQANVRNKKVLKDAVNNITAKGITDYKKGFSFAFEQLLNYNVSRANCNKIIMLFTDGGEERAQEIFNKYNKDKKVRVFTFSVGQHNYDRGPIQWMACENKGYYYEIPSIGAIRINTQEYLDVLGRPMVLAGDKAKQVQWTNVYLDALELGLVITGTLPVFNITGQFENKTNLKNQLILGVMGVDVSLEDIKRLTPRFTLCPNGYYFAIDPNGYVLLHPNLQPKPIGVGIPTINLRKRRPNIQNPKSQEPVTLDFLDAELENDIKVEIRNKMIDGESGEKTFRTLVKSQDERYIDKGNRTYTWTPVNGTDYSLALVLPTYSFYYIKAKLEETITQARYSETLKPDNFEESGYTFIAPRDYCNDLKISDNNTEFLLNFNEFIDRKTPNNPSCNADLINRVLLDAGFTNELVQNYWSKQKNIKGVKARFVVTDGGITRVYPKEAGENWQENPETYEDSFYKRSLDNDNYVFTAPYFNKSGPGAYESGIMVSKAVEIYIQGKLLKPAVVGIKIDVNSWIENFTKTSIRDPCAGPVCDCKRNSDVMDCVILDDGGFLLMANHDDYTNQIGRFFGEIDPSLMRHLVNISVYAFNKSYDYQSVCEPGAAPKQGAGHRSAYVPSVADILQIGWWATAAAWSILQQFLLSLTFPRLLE
T1 sequence (P54289 957-1103 partner limits assumed): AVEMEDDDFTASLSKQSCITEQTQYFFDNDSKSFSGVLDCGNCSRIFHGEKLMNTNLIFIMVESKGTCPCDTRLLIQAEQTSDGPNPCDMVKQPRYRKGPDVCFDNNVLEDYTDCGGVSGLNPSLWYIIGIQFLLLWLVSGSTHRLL
T2 sequence (Q00975 whole entry): as the sequence (Q00975 whole entry) above
T2 sequence (P54284 whole entry partner): as the sequence (P54284 whole entry partner) above
T2 sequence (P54289 25-956 partner limits assumed): as the sequence (P54289 25-956 partner limits assumed) above
T2 sequence (P54289 957-1103 partner limits assumed): as the sequence (P54289 957-1103 partner limits assumed) above

COc1ccc(-c2c3c(nn2-c2ccccc2OC)CN(S(=O)(=O)C(C)C)C3)cn1 [Cpd 97, 2-(2-Methoxyphenyl)-3-(6-methoxypyridin-3-yl)-5-[(1-methylethyl)sulfonyl]-2,4,5,6-tetrahydropyrrolo[3,4-c]pyrazole]
inhibition at 0.33 µM ([1]; 0.33 μM compound, FDSS, 50 mM KCl): 67%
pIC50 ([1]; HEK stable cell line, 50 mM KCl depolarization, six-point concentration-response): 7.37
inhibition at 1 µM (N-type calcium channel; high frequency (15th pulse of train, 5 Hz), read-out: QPatch at High Frequency % Inhibition): 60%
inhibition at 1 µM (N-type calcium channel; low frequency (1st pulse of train), read-out: QPatch at Low Frequency % Inhibition): 40%
